Measured values from PubChem BioAssay (NCI).
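Exposure lasted 48 hours, with cells grown in 96-well plates and compounds tested at five concentrations. GI50: concentration for 50% inhibition of growth. At the TGI there is no net growth.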 *1 amine or outer side, *2 acyl side, *3 side chain or, on linkers, in order; H or OH if unused. Where a SMILES comes first, the peptide text is derived from it. Bridges are numbered along the chain shown (N, C = ends). [ ]: non-standard residue; d: D form. The star is where a group is joined. Phe(3-Me) = Cc1cccc(C[C@H](N)C(=O)O)c1; NH(4-Cl-2-F-phenyl) = Fc1cc(Cl)ccc1N*; Pro(4R-Me) = C[C@H]1CN[C@H](C(=O)O)C1; Propanoyl(3-NMe2) = CN(C)CCC(=O)*; Hyp = O=C(O)[C@@H]1C[C@@H](O)CN1; aThr = C[C@H](O)[C@H](N)C(=O)O; Pip = O=C(O)[C@@H]1CCCCN1; CO = O=C([*:1])[*:2]

Key:
Test in all cases: inhibition of tumour cell growth, NCI panel, 48 h
CCRF-CEM leukemia = test system: CCRF-CEM leukemia
UACC-62 melanoma = test system: UACC-62 melanoma
HCT-116 colon = test system: HCT-116 colon
NCI/ADR-RES ovarian = test system: NCI/ADR-RES ovarian
SNB-19 CNS = test system: SNB-19 CNS
HL-60(TB) leukemia = test system: HL-60(TB) leukemia
SF-539 CNS = test system: SF-539 CNS
HOP-92 NSCLC = test system: HOP-92 NSCLC
RXF 393 renal = test system: RXF 393 renal
OVCAR-4 ovarian = test system: OVCAR-4 ovarian

SMILES | GI50 (CCRF-CEM leukemia) [µM] | TGI (CCRF-CEM leukemia) [µM] | GI50 (UACC-62 melanoma) [µM] | TGI (UACC-62 melanoma) [µM] | GI50 (HCT-116 colon) [µM] | TGI (HCT-116 colon) [µM] | GI50 (NCI/ADR-RES ovarian) [µM] | TGI (NCI/ADR-RES ovarian) [µM] | GI50 (SNB-19 CNS) [µM] | TGI (SNB-19 CNS) [µM] | GI50 (HL-60(TB) leukemia) [µM] | TGI (HL-60(TB) leukemia) [µM] | GI50 (SF-539 CNS) [µM] | TGI (SF-539 CNS) [µM] | GI50 (HOP-92 NSCLC) [µM] | TGI (HOP-92 NSCLC) [µM] | GI50 (RXF 393 renal) [µM] | TGI (RXF 393 renal) [µM] | GI50 (OVCAR-4 ovarian) [µM] | TGI (OVCAR-4 ovarian) [µM]
COc1ccc(Nc2ncccc2C(=O)NCc2cn(Cc3cccc(Oc4ccccc4)c3)nn2)cc1 | 3.8 | > 100 | 3.13 | > 100 | 4.17 | > 100 | 2.12 | 6.69 | 3.55 | > 100 | 2.66 | > 100 | 2.79 | 6.69 | 5.67 | > 100 | 2.59 | 7.16 | 5.19 | > 100
COc1cc(NC(N)=NCCC(C)(C)c2ccc(C(F)(F)F)cc2)ncc1C#N | 2.06 | 4.93 | 1.71 | 3.1 | 1.51 | 2.9 | 1.8 | 3.29 | 1.79 | 3.44 | 0.278 | 0.868 | 1.87 | 3.33 | 1.3 | 2.74 | 1.79 | 3.24 | 1.82 | 4.12
COc1cc(C2C(C#N)=C(N)Oc3cc(O)ccc32)cc(OC)c1OC (stereo not drawn) | 0.37 | > 100 | 0.407 | > 100 | 0.428 | > 100 | 1.72 | > 100 |  | > 100 | 0.311 | > 100 | 0.333 |  | 0.301 | 97.5 | 0.362 | 1.99 | 2.14 | > 100
CC[C@@]1(O)C(=O)OCc2c1cc1n(c2=O)Cc2c-1nc1ccccc1c2/C=N/OC(C)(C)C | < 0.01 | > 100 | < 0.01 | 0.118 | < 0.01 | 13.4 | < 0.01 | 0.395 | < 0.01 | 10.9 | < 0.01 | < 0.0125 | < 0.01 | < 0.0216 | < 0.0149 | 3.4 | < 0.01 | 0.0639 | 0.311 | 13.9
COc1ccc(-c2nocc2-c2cc(OC)c(OC)c(OC)c2)cc1 | 0.189 | > 100 | 0.0489 | 18.9 | 0.0412 | 13.1 | 0.0492 | > 61 | 0.175 | > 100 | 0.0387 | 0.886 | 0.132 | 20.7 | 2.02 | 59 | 0.14 | 0.797 | 2.21 | > 100
CC(=O)Nc1sc2c(c1-c1nc3ccccc3s1)CNC2 | 3.74 | 22.2 | 2.76 | 11.7 | 1.99 | 12.5 | 1.97 | 15.7 | 3.49 | 28.9 | 2.84 | 11.6 | 2.17 | 8.52 | 4.21 | 19.2 | 2.25 | 7.96 | 3.08 | 24.8
Cc1cccc(C[C@H](NC(=O)Nc2ccc(Cl)cc2F)C(=O)N[C@@H]2C(=O)N3C[C@H](OC(=O)CCN(C)C)C[C@H]3C(=O)N3CCCC[C@H]3C(=O)N[C@@H](C)C(=O)N3C[C@H](C)C[C@H]3C(=O)O[C@H]2C)c1 ({NH(4-Cl-2-F-phenyl)-CO}-[Phe(3-Me)][aThr][Hyp](Propanoyl(3-NMe2))[Pip]A[Pro(4R-Me)]; ester 2-C) | 0.47 | 7.81 | 0.569 | 2.06 | 0.408 | 1.62 | 10.8 | 28.5 | 0.389 | 11.5 | 0.354 | 1.9 | 0.704 | 2.17 | 0.572 | 2.66 | 1.23 | 2.85 | 0.334 | 2.06
O=S(=O)(NCCCNc1cc(-c2cn(-c3ccccc3)nc2-c2cccc(O)c2)ccn1)c1ccc(Cl)cc1 | 2.43 | 7.85 | 1.67 | 3.67 | 1.57 | 3.29 | 1.94 | 5.3 | 2.68 | 8.37 | 2.09 | 5.61 | 1.77 | 3.79 | 1.52 | 4.74 | 0.846 | 2.8 | 1.67 | 5.92
CCCCCCCCCC(CCCC(O)CC(=O)O)OC1OC(COC2OC(C)C(O)C(O)C2O)C(O)C(O)C1OC1OC(CO)C(O)C(O)C1OC1OC(C)C(O)C(O)C1O (stereo not drawn) | > 40 | > 40 | > 40 | > 40 | > 40 | > 40 | > 40 | > 40 | > 40 | > 40 | > 40 | > 40 | > 40 | > 40 | > 40 | > 40 | > 40 | > 40 | > 40 | > 40
C/C(=N\NC(=O)c1ccncc1)c1ccc(O)cc1O | 2.08 | > 100 | 3.3 | > 100 | 3.16 | > 100 | 3.42 | > 100 | 5.29 | > 100 | 3.4 | 32.6 | 5.67 | > 100 | 17.1 | > 100 | 12.2 | > 100 | 2.68 | > 100
O=C1OC2C(O)C(=O)OC2C1O (stereo not drawn) |  | > 100 |  | > 100 |  | > 100 |  | > 100 |  | > 100 |  | > 100 |  | > 100 |  | > 100 |  | > 100 |  | > 100
Oc1cc2ccccc2cc1-c1n[nH]c(=S)n1-c1ccc(Cl)cc1 | 21.9 | > 100 | 7.88 | 28.8 | 19.3 | > 100 | 13.8 | 64.1 | 25.4 | > 100 | 19 | > 100 | 15.3 | 50.8 | 46 | > 100 | 21.5 | 67.1 | 40.5 | > 100
